According to patent publication US11426367B2, “Methods of treating substance abuse” (Perception Neuroscience, Inc., priority 2018, dated 2022):

What was measured:
[1] = tested on: social defeat stress mice; assay: Tail suspension test (TST), social defeat stress model; format: in vivo; details: 10 mg/kg i.p.
Experimental: (§1) A social defeat stress model of depression was prepared by bringing C57/B6 male mice into contact with ICR male mice (large aggressive mice) for 10 consecutive days to apply a stress called a “social defeat stress” in accordance with the previous report (Non Patent Literature 19). […] Specifically, an increase in immobility time was found in each of a tail suspension test (TST) and a forced swimming test (FST).
(§2) The preparation of the animal model of depression and the administration of the agent were specifically performed as described below (FIG. 3A). Male C57/B6 mice (7-week-old, Japan SLC, Inc., Hamamatsu, Japan) and ICR mice (9-week-old, Japan SLC, Inc., Hamamatsu, Japan) were used. The mice were given free access to water and feed. A social defeat stress was applied by housing one C57/B6 mouse with one ICR mouse for 10 days.
(§3) The antidepressant effects of the agent were investigated by behavioral tests such as the TST, the PST, the LMT, and a 1% sucrose preference test (SPT) (FIG. 3A). The 1% sucrose preference test (SPT) was performed on 1 day and 6 days after the injection of ketamine. Each of the TST and the PST was performed on 2 days and 7 days after the injection of ketamine. The TST was performed as described below. First, the mice were taken out from cages, and then a small piece of an adhesive tape was bonded onto a portion approximately 2 cm away from the tip of the tail of the mice. A small hole was opened in the small piece, and the mice were each fixed upside down on a hook through the small hole. The immobility time of each mouse was recorded for 10 minutes. Mice were considered immobile only when they hung passively and completely motionless. The immobility time increases in a depressive state. The PST was performed as described below. First, the mice were placed individually in a cylinder (diameter: 23 cm; height: 31 cm) containing 15 cm of water, maintained at 22 to 24 deg C. The mice were tested in an automated forced-swimming apparatus using SCANET MV-40 ([…] Co., Ltd., Toyama, Japan). The immobility time was calculated as a value obtained by subtracting active time from total time, using the analysis software of the apparatus. Cumulative immobility time was recorded over 6 minutes during a test period. The LMT was performed as described below. First, the mice were placed in experimental cages (length×width×height: 560×560×330 mm). The locomotor activity of the mice was counted with SCANET MV-40, and the cumulative exercise of the mice was recorded for 60 minutes. The cages were cleaned between testing session. The immobility time increases in a depressive state. […] A spine density was quantitatively evaluated by observation with a KEYENCE microscope (BZ-9000, Osaka, Japan).

[2] = tested on: social defeat stress mice; assay: Forced swimming test (FST), social defeat stress model; format: in vivo; details: 10 mg/kg i.p.
Experimental: as §1, §2, §3

[3] = tested on: social defeat stress mice; assay: 1% sucrose preference test (SPT), social defeat stress model; format: in vivo; details: 10 mg/kg i.p.
Experimental: as §1, §2, §3

[4] = tested on: rewarding effects of morphine; assay: Morphine-induced conditioned place preference; format: in vivo, mice; details: for Morphine CPP, dose blocking the rewarding effects of morphine: Table 11, Present study
Experimental: The methods for conditioned place preference and evaluation of R-ketamine were conducted using the general methods of Suzuki et al. (2000). The general design was to dose mice with either saline+saline, saline+morphine, or R-ketamine+morphine and evaluate their preference for the morphine-associated place.
Male ddY mice (20-23 g) were obtained from Tokyo Experimental Animals Inc. (Tokyo, Japan). The ddY mice were bred in a closed colony. The mice were housed at a temperature of 22 f 1° C. with a 12-h light-dark cycle (light on 8:30 a.m. to 8:30 p.m.). Food and water were available ad libitum.
Place conditioning was conducted as described previously, using a minor modification of a biased procedure according to Suzuki et al. (2000). The apparatus consisted of a shuttlebox (15×30×15 cm: w×l×h) made of an acryl-resin board. The box was divided into two compartments of equal size by means of a sliding partition. One compartment was white with a textured floor; the other was black with a smooth floor. For conditioning mice were immediately conditioned to the white compartment following drug injection and to the black compartment following vehicle injection.
Conditioning sessions were conducted once daily for 6 consecutive days. […] Preference for a particular place was assessed in the drug-free state after placing the animals on the neutral platform and allowing them free access to both compartments. The time spent in each compartment during a 900-sec session was then measured automatically in a blinded fashion by two infrared beam sensors (KN-80, Natsume Seisakusyo, Tokyo, Japan) on the covers (3 cm from the center and the side) of the white and black compartments. […]
Conditioning scores represent the time spent in the drug-paired place minus the time spent in the vehicle-paired place, and are expressed as the mean±S.E.M. Behavioral data were evaluated statistically with a one-way analysis of variance (ANOVA) followed by Dunnett's test to determine whether individual doses produced significant conditioning.

[5] = tested on: cerebral metabolic rates of glucose; details: healthy volunteers, Non Patent Literature 13, cited from earlier work; for cerebral metabolic rates of glucose (CMRglu), PET: S(+)-ketamine i.v. 15 mg for 5 min then 0.014 to 0.02 mg/kg/min for 53 min, R(−)-ketamine equimolar doses
Control C57/B6 mice [6] = assay: Prepulse inhibition test in control mice; details: control mice, 5, 10 or 20 mg/kg
Experimental: PP69, PP73, PP77, and PP81 mean that stimuli at 69, 73, 77, and 81 dB for more than 20 milliseconds were presented 100 milliseconds before a 110-dB pulse, respectively. Data analysis was performed by Wilks Lambda, which is multivariate analysis of variance (Example 3).
The prepulse inhibition test was performed using a startle response system (SR-LAB, SanDiego Instruments, San Diego, Calif., United States). The analysis of the results of prepulse inhibition was performed by multivariate analysis of variance (MANOVA), followed by a least significant difference test (LSD test). Data are presented as the mean plus minus standard error of the mean (n=10 to 12 mice/group). *p<0.05 and p<0.01 indicate significant differences as compared to a group injected with saline.

Control C57/B6 mice [7] = assay: Conditioned place preference test (dependence test) in control mice; details: control mice, 5, 10 or 20 mg/kg, injected on day 4, 6 and 8, test on day 11
Experimental: 15-minute habituation was performed for 3 days. Then, 30-minute conditioning was performed on day 4 to day 10, and a behavioral evaluation test was performed on day 11. Saline was injected on day 5, day 7, and day 9. […] In each of the groups, the injection was performed three times, i.e., on day 4, day 6, and day 8. Saline means a group injected with saline.
The administration of an agent was performed by the same methods as the methods described in Example 2.
The place preference test was performed using a conditioned place preference test apparatus (BrainScienceIdea Co., Ltd., Osaka, Japan). The analysis of the results of the place preference test was performed by one-way analysis of variance (one-way ANOVA), followed by a least significant difference test (LSD test). Data are presented as the mean plus minus standard error of the mean (n=9 or 10 mice/group). *p<0.05 and **p<0.01 indicate significant differences as compared to a group injected with saline.

In the case of `CN[C@@]1(c2ccccc2Cl)CCCCC1=O.Cl` [R(−)-ketamine], the “immobility time in the TST” value ([1]; 2 days after injection) is reported as “markedly reduced the immobility time”, the “immobility time in the TST” value ([1]; 7 days after injection) is reported as “significantly reduced the immobility time” and the “immobility time in the FST” value ([2]; 2 days after injection) is reported as “markedly reduced the immobility time”. For the same molecule, the “immobility time in the FST” value ([2]; 7 days after injection) was “significantly reduced the immobility time”, the “sucrose consumption preference in the SPT” value ([3]; 1 day after injection) was “sucrose consumption preference significantly increased” and the “sucrose consumption preference in the SPT” value ([3]; 6 days after injection) was “significantly restored the sucrose consumption preference”. For the same molecule, the “conditioned place preference induced by morphine” value ([4]; 10 mg/kg i.p. co-dosed with morphine 5 mg/kg i.p., F(2,29)=2.2, p=0.064) was “trend toward significant attenuation”, the “Morphine CPP, dose blocking the rewarding effects of morphine” value [4] was 10 mg/kg and the psychotic symptoms ([5]; doses equimolar to psychotomimetic doses of S(+)-ketamine) was “did not produce psychotic symptoms”. The “cerebral metabolic rates of glucose (CMRglu), PET” value [5] was “tended to decrease CMRglu”, the prepulse inhibition (Control C57/B6 mice [6]) was “did not disrupt prepulse inhibition” and the “CPP score (conditioned place preference test)” value (Control C57/B6 mice [7]) was “did not increase the CPP score”.

In the case of `CN[C@]1(c2ccccc2Cl)CCCCC1=O` [S(+)-ketamine], the “immobility time in the TST” value ([1]; 2 days after injection) is reported as “markedly reduced the immobility time”, the “immobility time in the TST” value ([1]; 7 days after injection) is reported as “significantly reduced the immobility time” and the “immobility time in the FST” value ([2]; 2 days after injection) is reported as “markedly reduced the immobility time”. The “immobility time in the FST” value ([2]; 7 days after injection) was “significantly reduced the immobility time”, the “sucrose consumption preference in the SPT” value ([3]; 1 day after injection) was “sucrose consumption preference significantly increased” and the “sucrose consumption preference in the SPT” value ([3]; 6 days after injection) was “significantly restored the sucrose consumption preference”. For the same molecule, the “Morphine CPP, dose blocking the rewarding effects of morphine” value [4] was 10 mg/kg, the “cerebral metabolic rates of glucose (CMRglu), PET” value [5] was “increased cerebral metabolic rates of glucose” and the prepulse inhibition (Control C57/B6 mice [6]) was “disrupted prepulse inhibition in a dose-dependent manner”. For the same molecule, the “CPP score (conditioned place preference test)” value (Control C57/B6 mice [7]) was “increased the CPP score in a dose-dependent manner”.
